Test system: Z-138 cells
Assay: Z-138 Methylation Assay (In Cell Western for symmetric di-methyl arginine and DNA content)
Type: cell-based
Details: Homo sapiens, Table D-2, read-out: ICW EC50
Procedure, shortened: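 Z-138 cells at 50,000 cells/mL exposed to compound 96 h at 37 °C, then attached to poly-D-lysine plates, fixed with paraformaldehyde and probed with anti-symmetric di-methyl arginine plus DRAQ5 DNA stain. 800/700 nm ratio normalized to DMSO and 3 μM reference controls; IC50 from triplicate wells.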

SMILES | EC50
N#Cc1ccccc1-c1cccc(OCC(O)CN2CCc3ccccc3C2)c1 (stereo not drawn) [Compound D93] | 1 to 10 µM
N#Cc1ccc(-c2cccc(OCC(O)CN3CCc4ccccc4C3)c2)cc1 (stereo not drawn) [Compound D94] | 1 to 10 µM
Oc1cccc(-c2cccc(OCC(O)CN3CCc4ccccc4C3)c2)c1 (stereo not drawn) [Compound D95] | 1 to 10 µM

Source: patent US20150344457A1, “METHODS OF INHIBITING PRMT5” (EPIZYME, INC., priority 2012, published 2015)
